Tested on: PBMCs from dogs immunised with CDV
Assay: T-cell proliferation after in vitro stimulation of PBMC with peptide pools, tested with autologous APCs and single peptides
Format: cell-based, dog
Method: An alternate strategy was used to increase the precursor frequency of specific T cells recognising the CDV peptides. Fresh PBMCs obtained from these hyperimmunised dogs were subjected to stimulation in vitro with pools of all 94 peptides for 30 minutes at 37° C. The cells were then washed to remove any excess peptides and cultured for 7 days. This population of T cells was then tested with autologous APCs with every single peptide as the antigen.
To confirm this observation, the same four dogs were bled again, five weeks after receiving the dose of killed virus. The PBMCs were stimulated in vitro with pools of either all 94 peptides or peptides 21-40 (because most of the activity was in this region) and after 7 days of culture the stimulated T cells were tested against individual peptides. Significant stimulatory indices were obtained with all peptides, confirming the above results. Four more dogs which received only one dose of 3 in 1 vaccine were tested using the in vitro stimulation method and all four dogs responded to the majority of peptides shown in Table 2.
Once again the same peptides and one additional peptide P32 were tested on cells from additional dogs.

[1] = Table 1, Beagle Foxhound (Dog #18), hyperimmunised, PBMC stimulated with pool of all 94 peptides, 7 days culture
[2] = Table 1, Beagle Foxhound (Dog #19)
[3] = Table 1, Beagle Foxhound (Dog #20)
[4] = Table 1, Beagle Foxhound (Dog #21)
[5] = Table 3, Kelpie Foxhound (Dog #125)
[6] = Table 2, Beagle Foxhound (Dog #71), one dose of 3 in 1 vaccine
[7] = Table 2, Beagle Foxhound (Dog #72), one dose of 3 in 1 vaccine

| Sequence | Stimulatory index [1] | Stimulatory index [2] | Stimulatory index [3] | Stimulatory index [4] | Stimulatory index [5] | Stimulatory index (Table 5, Border Collie) | Stimulatory index (Table 5, Fox Terrier) | Stimulatory index (Table 5, Grey hound) | Stimulatory index (Table 5, Kelpie Pointer) | Stimulatory index (Table 5, Poodle Shitzu) | Stimulatory index (Table 5, Terrier Cross) | Stimulatory index (Table 4, Beagle Foxhound #19) | Stimulatory index (Table 4, Beagle Foxhound #20) | Stimulatory index (Table 4, Poodle Shitzu) | reaction with peripheral blood mononuclear cells (dogs of various breeds immunised with CDV) | Stimulatory index [6] | Stimulatory index (Table 2, Beagle Foxhound (Dog #73), one dose of 3 in 1 vaccine) | Stimulatory index [7] |
| --- | --- | --- | --- | --- | --- | --- | --- | --- | --- | --- | --- | --- | --- | --- | --- | --- | --- | --- |
| CIRGDTSSCARTLVSGT (canine distemper virus; synthetic peptide from canine distemper virus fusion protein (CDV-F) designated peptide P68) | 6.6 | <2 | <2 | 11.7 | 2.9 | <2 | <2 | <2 | <2 | 5 | <2 | – | – | – | – | – | – | – |
| DESSCVFVSESAICSQN (canine distemper virus; synthetic peptide from canine distemper virus fusion protein (CDV-F) designated peptide P64) | – | – | – | – | – | <2 | <2 | <2 | <2 | 50 | <2 | 2.5 | 2.5 | 50.0 | react strongly | – | – | – |
| EPINQALTLMTKNVKPL (canine distemper virus; synthetic peptide from canine distemper virus fusion protein (CDV-F) designated peptide P29) | 3.5 | 42 | 4.4 | <2 | 3.6 | <2 | <2 | <2 | <2 | 2 | 2 | – | – | – | – | 2 | 6 | – |
| EQSNKAIEEIREATQET (canine distemper virus; synthetic peptide from canine distemper virus fusion protein (CDV-F) designated peptide P39) | – | – | – | – | 2.9 | – | – | – | – | – | – | – | – | – | – | – | – | – |
| FAGVVLAGVALGVATAA (canine distemper virus; synthetic peptide from canine distemper virus fusion protein (CDV-F) designated peptide P33) | – | – | – | – | 6 | 2 | <2 | <2 | 2 | <2 | <2 | – | – | – | – | – | – | 1.6 |
| GIALHQSNLNAQAIQSL (canine distemper virus; synthetic peptide from canine distemper virus fusion protein (CDV-F) designated peptide P36) | 6.7 | 3.7 | 3.3 | 16 | 3 | – | – | – | – | – | – | – | – | – | – | – | – | – |
| GVALGVATAAQITAGIA [Peptide P34] | – | – | – | – | 2.1 | – | – | – | – | – | – | – | – | – | – | – | – | – |
| IGTDNVHYKIMTRPSHQ (canine distemper virus; synthetic peptide from canine distemper virus fusion protein (CDV-F) designated peptide P22) | – | – | – | – | – | – | – | – | – | – | – | – | – | – | – | – | – | 2.6 |
| KLLNSVLEPINQALTLM (canine distemper virus; synthetic peptide from canine distemper virus fusion protein (CDV-F) designated peptide P28) | – | – | – | – | 1.9 | – | – | – | – | – | – | – | – | – | – | 2 | – | – |
| NLNAQAIQSLRTSLEQS (canine distemper virus; synthetic peptide from canine distemper virus fusion protein (CDV-F) designated peptide P37) | 6.9 | 10.9 | 8.2 | 26 | 2.5 | <2 | <2 | <2 | 2 | <2 | 2 | – | – | – | – | – | – | 1.7 |

— US7572454B2, “T helper cell epitopes” (priority 1999, dated 2009)
